Results as given in patent US20090105119A1, “ASPARAGINE-10-SUBSTITUTED NONADEPSIPEPTIDES” (priority 2006, published 2009).
Values after ≈ are worked out from the molar mass of the structure shown. Like-named read-outs stand apart in the source and are kept apart here. Blank lines part the entries; values can stand above or below the compound they belong to. *1 amine or outer side, *2 acyl side, *3 side chain or, on linkers, in order; H or OH if unused. Where a SMILES comes first, the peptide text is derived from it. Bridges are numbered along the chain shown (N, C = ends). [ ]: non-standard residue; d: D form. Phe(3R-OH) = O=C([C@@H](N[*:1])[C@H](O[*:3])c1ccccc1)[*:2]; X7 = O=C(NCc1ccccc1)[C@@H](O)[C@H](N[*:1])C(=O)[*:2]; X2 = O=C(NCCO)[C@@H](O)[C@H](N[*:1])C(=O)[*:2]; X1 = CNC(=O)[C@@H](O)[C@H](N[*:1])C(=O)[*:2]; Leu(3R-OH) = CC(C)[C@@H](O)[C@H](N)C(=O)O; aThr = C[C@H](O)[C@H](N)C(=O)O

Legend:
[1] = Determination of the free fraction (fu) in plasma; type: in vitro ADME; conditions: human
Protocol: (§1) Principle of the Determination of the Free Fraction Via Transil:
(§2) The method described here for determining the free fraction (fu) of a test substance is divided into 2 parts:
(§3) a) Determination of the Transil®/buffer distribution ratio (MAbuffer) by incubating the test substance in a Transil®-buffer (pH 7.4) dispersion and subsequently determining the concentration in the dispersion and in the buffer supernatant.
(§4) b) Determination of the Transil®/plasma distribution ratio (MAplasma) by incubating the test substance in a Transil®-plasma dispersion and subsequently determining the concentration in the dispersion and in the plasma.
(§5) The quotient of the two distribution ratios yields fu.
(§6) In the case of highly protein-bound substances, the plasma is usually diluted with isotonic phosphate buffer (pH 7.4) and then suspended with Transil®. The determination of fu′ (free fraction in diluted plasma) in this diluted protein solution takes place in analogy to the determination of fu. The free fraction in undiluted plasma is calculated from fu′ and the dilution factor.
(§7) Concerning this method, compare also: Schuhmacher, Joachim; Kohlsdorfer, Christian; Buehner, Klaus; Brandenburger, Tim; Kruk, Renate, “High-throughput determination of the free fraction of drugs strongly bound to plasma proteins.” Journal of Pharmaceutical Sciences 2004, 93, 816-830.
(§8) Determination of the Membrane Affinity of a Test Substance after Distribution Between Transil® and Buffer (MAbuffer):
(§9) All incubations are carried out in suitable glass vessels, e.g. glass vials, ground-socket test tubes. In general the total volume is 0.5-5 ml, and the Transil® volume 10-100 μl. In cases where the membrane affinities are expected to be high, the Transil® dispersion can be diluted up to 20-fold with phosphate buffer of pH 7.4, e.g. Dulbecco's PBS. Phosphate buffer of pH 7.4 is provided in the incubation vessels, and the Transil® is pipetted in, after thorough mixing. The test substance is pipetted in at a concentration of, for example, 200 ng/mL, n=6. The proportion of organic solvent should be <2%. The mixtures are incubated at room temperature for 30 min, e.g. on a mini-shaker at an angle of about 45°, at about 400 rpm. In order to determine the 100% value at least one aliquot of, for example, 100 μl, is removed and the remaining mixture is centrifuged at about 1800 g for about 10 min. At least 2 aliquots (e.g. 100 μl) of the supernatant are removed from each sample for the determination of the concentration.
(§10) Determination of MAplasma in Undiluted or Diluted Plasma:
(§11) The total incubation volume and the added volume of Transil® depend on the expected free fraction. In general the total volume is 0.5-1 ml, and the Transil® volume is 10-100 μl. In cases where the free fractions are very low, the plasma of the species to be investigated is diluted, with isotonic buffer solution, pH 7.4, e.g. 10-400-fold, and the Transil® is then added. The subsequent procedure takes place as described above for the determination of the MAbuffer values. […]
(§12) The plasma of the species to be investigated is filtered through a semipermeable membrane. The substance concentration in the filtrate is measured and the free fraction fu is calculated therefrom. […] The substance concentration in the ultrafiltrate (Cu; unbound substance concentration) and in the plasma before centrifugation (C; total substance concentration) is measured. The free fraction is calculated by the formula: fu (%)=Cu/C*100.

[2] = Determination of the free fraction (fu) in plasma; type: in vitro ADME, rat; conditions: pH 7.4
Protocol: as §1, §2, §3, §4, §5, §6, §7, §8, §9, §10, §11, §12

[3] = test system: Streptococcus pneumoniae G9a; type: cell-based; conditions: BHI broth with 10% bovine serum, 10^6 microbes per ml, 10% CO2, 37° C., 18-24 hours
Protocol: (§13) Determination of the Minimum Inhibitory Concentration (MIC):
(§14) The MIC is determined in the liquid dilution test in accordance with the NCCLS guidelines. Overnight cultures of Staphylococcus aureus 133, Enterococcus faecalis 27159, E. faecium 4147 and Streptococcus pneumoniae G9a are incubated with the described test substances in a 1:2 dilution series. The MIC determination is carried out with a cell count of 10^5 microbes per ml in Isosensitest medium (Difco, Irvine/USA), with the exception of S. pneumoniae which is tested in BHI broth (Difco, Irvine/USA) with 10% bovine serum with a cell count of 10^6 microbes per ml. The cultures are incubated at 37° C. for 18-24 hours, S. pneumoniae in the presence of 10% CO2.
(§15) The MIC is defined as the lowest concentration of each substance at which no visible bacterial growth occurs any longer. The MIC values are reported in μg/ml.

[4] = test system: Staphylococcus aureus 133; type: cell-based; conditions: Isosensitest medium, 10^5 microbes per ml, 37° C., 18-24 hours
Protocol: as §13, §14, §15

[5] = test system: E. faecalis ICB 27159; type: cell-based, Enterococcus faecalis; conditions: Isosensitest medium, 10^5 microbes per ml, 37° C., 18-24 hours
Protocol: as §13, §14, §15

[6] = read-out: Free fraction (human plasma)
[7] = rat plasma, read-out: Free fraction (rat plasma)

Compound: CC[C@H](C)[C@@H]1NC(=O)[C@@H](CCCNC(=N)N)NC(=O)[C@H](CC(C)C)NC(=O)[C@H]([C@H](O)C(C)C)NC(=O)[C@@H](NC(=O)[C@H](CC(C)C)NC(=O)[C@H](N)CC(C)C)[C@@H](c2ccccc2)OC(=O)[C@H](CO)NC(=O)[C@H]([C@H](O)C(=O)NCCO)NC(=O)CNC(=O)[C@H]([C@H](C)O)NC1=O [Example 2, N^4.10-(2-Hydroxyethyl)-D-leucyl-L-leucyl-[(3R)-3-hydroxy-L-phenylalanyl]-[(3R)-3-hydroxy-L-leucyl]-L-leucyl-D-arginyl-L-isoleucyl-L-allothreonylglycyl-[(3S)-3-hydroxy-L-asparaginyl]-L-serine C^1.11—O^3.3-lactone Bistrifluoroacetate] (H-[dL]L[Phe(3R-OH)][Leu(3R-OH)]L[dR]I[aThr]G[X2]S; ester 3-C)
- fraction unbound at 30 min [1, 6]: 0.099
- fraction unbound at 30 min, 200 ng/mL [2, 7]: 0.137
- MIC S. pneumoniae G9a [3]: 2 µg/mL (≈ 1.51 µM)
- MIC S. aureus 133 [4]: 1 µg/mL (≈ 0.757 µM)
- MIC E. faecalis ICB 27159 [5]: 16 µg/mL (≈ 12.1 µM)

Compound: CC[C@H](C)[C@@H]1NC(=O)[C@@H](CCCNC(=N)N)NC(=O)[C@H](CC(C)C)NC(=O)[C@H]([C@H](O)C(C)C)NC(=O)[C@@H](NC(=O)[C@H](CC(C)C)NC(=O)[C@H](N)CC(C)C)[C@@H](c2ccccc2)OC(=O)[C@H](CO)NC(=O)[C@H]([C@H](O)C(=O)NC)NC(=O)CNC(=O)[C@H]([C@H](C)O)NC1=O [Example 3, N^4.10-Methyl-D-leucyl-L-leucyl-[(3R)-3-hydroxy-L-phenylalanyl]-[(3R)-3-hydroxy-L-leucyl]-L-leucyl-D-arginyl-L-isoleucyl-L-allothreonylglycyl-[(3S)-3-hydroxy-L-asparaginyl]-L-serine C^1.11—O^3.3-lactone Bistrifluoroacetate] (H-[dL]L[Phe(3R-OH)][Leu(3R-OH)]L[dR]I[aThr]G[X1]S; ester 3-C)
- fraction unbound at 30 min [1, 6]: 0.051
- fraction unbound at 30 min, 200 ng/mL [2, 7]: 0.129
- MIC S. pneumoniae G9a [3]: 0.5 µg/mL (≈ 0.387 µM)
- MIC S. aureus 133 [4]: 0.25 µg/mL (≈ 0.194 µM)
- MIC E. faecalis ICB 27159 [5]: 2 µg/mL (≈ 1.55 µM)

- fraction unbound at 30 min [1]: 0.026
- fraction unbound at 30 min, 200 ng/mL ([2]; rat, plasma): 0.07
Compound: CC[C@H](C)[C@@H]1NC(=O)[C@@H](CCCNC(=N)N)NC(=O)[C@H](CC(C)C)NC(=O)[C@H]([C@H](O)C(C)C)NC(=O)[C@@H](NC(=O)[C@H](CC(C)C)NC(=O)[C@H](N)CC(C)C)[C@@H](c2ccccc2)OC(=O)[C@H](CO)NC(=O)[C@H]([C@H](O)C(=O)NCc2ccccc2)NC(=O)CNC(=O)[C@H]([C@H](C)O)NC1=O [Example 6, N^4.10-Benzyl-D-leucyl-L-leucyl-[(3R)-3-hydroxy-L-phenylalanyl]-[(3R)-3-hydroxy-L-leucyl]-L-leucyl-D-arginyl-L-isoleucyl-L-allothreonylglycyl-[(3S)-3-hydroxy-L-asparaginyl]-L-serine C^1.11—O^3.3-lactone Bistrifluoroacetate] (H-[dL]L[Phe(3R-OH)][Leu(3R-OH)]L[dR]I[aThr]G[X7]S; ester 3-C)
